Experimental data published in ChEMBL document CHEMBL3745672, “Novel compounds reducing IRS-1 serine phosphorylation for treatment of diabetes” (Bioorg Med Chem Lett, 2016).

How the values were obtained:
[1] = biological target: T1, Mitogen-activated protein kinase 8 (Homo sapiens, UniProt P45983); assay: Inhibition of JNK1 (unknown origin)
[2] = biological target: Epithelial discoidin domain-containing receptor 1 (Homo sapiens) (UniProt Q08345); assay: Inhibition of DDR1 (unknown origin) at 10 uM
[3] = biological target: Receptor tyrosine-protein kinase erbB-2 (Homo sapiens) (UniProt P04626); assay: Inhibition of ERBB2 (unknown origin) at 10 uM
[4] = biological target: CDK2/Cyclin A2 (Homo sapiens) (UniProt P24941+P20248); assay: Inhibition of CDK2/CyclinA (unknown origin) at 10 uM; assay type: protein-complex assay
[5] = biological target: T2, Interleukin-1 receptor-associated kinase 4 (Homo sapiens) (UniProt Q9NWZ3); assay: Inhibition of IRAK4 (unknown origin) at 10 uM
T2 sequence (whole entry): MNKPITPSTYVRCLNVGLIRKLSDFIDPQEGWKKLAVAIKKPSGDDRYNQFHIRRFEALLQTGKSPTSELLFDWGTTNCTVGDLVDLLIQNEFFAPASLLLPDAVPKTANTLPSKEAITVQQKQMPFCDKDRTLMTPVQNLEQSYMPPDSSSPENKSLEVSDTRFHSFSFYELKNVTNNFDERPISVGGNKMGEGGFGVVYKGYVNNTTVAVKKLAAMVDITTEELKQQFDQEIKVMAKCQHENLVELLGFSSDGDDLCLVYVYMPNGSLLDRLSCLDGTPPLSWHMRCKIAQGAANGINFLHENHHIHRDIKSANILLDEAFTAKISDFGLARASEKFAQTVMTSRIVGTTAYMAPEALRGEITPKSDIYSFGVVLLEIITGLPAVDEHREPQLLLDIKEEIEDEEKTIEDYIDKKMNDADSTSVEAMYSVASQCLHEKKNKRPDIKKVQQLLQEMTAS

[6] = biological target: Hepatocyte growth factor receptor (Homo sapiens) (UniProt P08581); assay: Inhibition of cMET (unknown origin) at 10 uM
[7] = biological target: Insulin receptor (Homo sapiens) (UniProt P06213); assay: Inhibition of INSR (unknown origin) at 10 uM
[8] = biological target: Serine/threonine-protein kinase pim-1 (Homo sapiens) (UniProt P11309); assay: Inhibition of PIM1 (unknown origin) at 10 uM
[9] = biological target: Vascular endothelial growth factor receptor 2 (Homo sapiens) (UniProt P35968); assay: Inhibition of VEGFR2 (unknown origin) at 10 uM
[10] = biological target: T1, Mitogen-activated protein kinase 8; assay: Inhibition of JNK1 (unknown origin) expressed in HEK293 cells assessed as anisomycin-induced c-Jun phosphorylation at 10 uM incubated for 30 mins by Western blot analysis relative to anisomycin; assay type: cell-based; set-up: scale not given: the % may be the effect or the level left
[11] = biological target: RAC-alpha serine/threonine-protein kinase (Homo sapiens) (UniProt P31749); assay: Inhibition of AKT1 (unknown origin) at 10 uM
[12] = biological target: Tyrosine-protein kinase SYK (Homo sapiens) (UniProt P43405); assay: Inhibition of SYK (unknown origin) at 10 uM
[13] = biological target: Angiopoietin-1 receptor (Homo sapiens) (UniProt Q02763); assay: Inhibition of TIE2 (unknown origin) at 10 uM
[14] = biological target: Serine/threonine-protein kinase B-raf (Homo sapiens) (UniProt P15056); assay: Inhibition of B-RAF (unknown origin) at 10 uM
[15] = biological target: Cyclin-dependent kinase 4/cyclin D1 (Homo sapiens) (UniProt P11802+P24385); assay: Inhibition of CDK4/cyclin D1 (unknown origin) at 10 uM; assay type: protein-complex assay
[16] = biological target: Tyrosine-protein kinase ABL1 (Homo sapiens) (UniProt P00519); assay: Inhibition of ABL (unknown origin) at 10 uM
[17] = biological target: T3, Aurora kinase A (Homo sapiens) (UniProt O14965); assay: Inhibition of AurA (unknown origin) at 10 uM
T3 sequence (whole entry): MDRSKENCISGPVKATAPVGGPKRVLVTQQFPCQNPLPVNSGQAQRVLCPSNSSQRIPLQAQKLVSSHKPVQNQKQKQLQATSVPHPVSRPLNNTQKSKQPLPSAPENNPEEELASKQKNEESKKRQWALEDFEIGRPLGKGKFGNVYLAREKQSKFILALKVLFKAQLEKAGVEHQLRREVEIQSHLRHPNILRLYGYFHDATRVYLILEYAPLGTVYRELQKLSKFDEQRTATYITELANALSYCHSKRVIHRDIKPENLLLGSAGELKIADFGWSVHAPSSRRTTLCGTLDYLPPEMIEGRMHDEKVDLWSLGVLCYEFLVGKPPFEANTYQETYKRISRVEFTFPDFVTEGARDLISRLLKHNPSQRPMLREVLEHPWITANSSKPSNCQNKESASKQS

[18] = biological target: Rho-associated protein kinase 2 (Homo sapiens) (UniProt O75116); assay: Inhibition of ROCK2 (unknown origin) at 10 uM
[19] = biological target: T1, Mitogen-activated protein kinase 8; assay: Inhibition of JNK1 (unknown origin) expressed in HEK293 cells assessed as anisomycin-induced IRS-1(Ser307) phosphorylation at 10 uM incubated for 30 mins by Western blot analysis relative to anisomycin; assay type: cell-based; set-up: scale not given: the % may be the effect or the level left
[20] = system: HEK293; assay: Cytotoxicity against HEK293 after 24 hrs by CellTiter-Glo luminescent cell viability assay; assay type: cell-based; details: Homo sapiens, HEK293, 24 h
[21] = biological target: Serine/threonine-protein kinase PAK 1 (Homo sapiens) (UniProt Q13153); assay: Inhibition of PAK1 (unknown origin) at 10 uM
[22] = biological target: Mast/stem cell growth factor receptor Kit (Homo sapiens) (UniProt P10721); assay: Inhibition of cKIT (unknown origin) at 10 uM
[23] = biological target: Tyrosine-protein kinase CSK (Homo sapiens) (UniProt P41240); assay: Inhibition of CSK (unknown origin) at 10 uM
[24] = biological target: Fibroblast growth factor receptor 3 (Homo sapiens) (UniProt P22607); assay: Inhibition of FGFR3 (unknown origin) at 10 uM
[25] = biological target: Receptor-type tyrosine-protein kinase FLT3 (Homo sapiens) (UniProt P36888); assay: Inhibition of FLT3 (unknown origin) at 10 uM
[26] = biological target: Mitogen-activated protein kinase 3 (Homo sapiens) (UniProt P27361); assay: Inhibition of ERK1 (unknown origin) at 10 uM
[27] = biological target: Proto-oncogene tyrosine-protein kinase Src (Homo sapiens) (UniProt P12931); assay: Inhibition of SRC (unknown origin) at 10 uM
Sequence of Proto-oncogene tyrosine-protein kinase Src (Homo sapiens) (P12931 2-536 limits assumed): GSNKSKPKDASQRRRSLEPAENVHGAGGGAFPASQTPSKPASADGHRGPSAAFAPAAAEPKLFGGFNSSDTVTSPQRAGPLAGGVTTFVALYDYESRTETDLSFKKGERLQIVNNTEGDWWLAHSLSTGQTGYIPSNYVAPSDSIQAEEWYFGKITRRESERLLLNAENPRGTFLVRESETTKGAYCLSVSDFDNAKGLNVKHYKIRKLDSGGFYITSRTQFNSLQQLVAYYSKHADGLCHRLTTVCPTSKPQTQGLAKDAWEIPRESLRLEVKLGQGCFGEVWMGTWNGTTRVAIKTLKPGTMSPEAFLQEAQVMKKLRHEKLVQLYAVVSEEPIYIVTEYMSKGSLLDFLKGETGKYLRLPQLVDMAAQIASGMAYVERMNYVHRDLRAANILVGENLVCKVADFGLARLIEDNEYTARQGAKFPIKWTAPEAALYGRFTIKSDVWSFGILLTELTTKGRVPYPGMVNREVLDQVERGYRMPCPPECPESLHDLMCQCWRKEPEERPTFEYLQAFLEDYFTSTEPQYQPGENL

Sequence of Mitogen-activated protein kinase 3 (Homo sapiens) (P27361 whole entry): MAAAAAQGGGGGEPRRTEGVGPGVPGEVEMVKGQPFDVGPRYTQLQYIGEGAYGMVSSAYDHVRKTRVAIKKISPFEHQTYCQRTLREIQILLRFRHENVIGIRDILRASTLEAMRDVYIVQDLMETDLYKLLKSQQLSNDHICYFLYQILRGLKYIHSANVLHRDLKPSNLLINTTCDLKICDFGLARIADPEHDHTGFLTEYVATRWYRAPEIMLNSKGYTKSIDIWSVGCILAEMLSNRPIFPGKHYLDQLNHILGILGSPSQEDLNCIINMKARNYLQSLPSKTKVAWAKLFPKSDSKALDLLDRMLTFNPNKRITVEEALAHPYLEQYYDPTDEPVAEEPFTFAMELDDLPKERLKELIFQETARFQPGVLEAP
Sequence of Vascular endothelial growth factor receptor 2 (Homo sapiens) (P35968 whole entry): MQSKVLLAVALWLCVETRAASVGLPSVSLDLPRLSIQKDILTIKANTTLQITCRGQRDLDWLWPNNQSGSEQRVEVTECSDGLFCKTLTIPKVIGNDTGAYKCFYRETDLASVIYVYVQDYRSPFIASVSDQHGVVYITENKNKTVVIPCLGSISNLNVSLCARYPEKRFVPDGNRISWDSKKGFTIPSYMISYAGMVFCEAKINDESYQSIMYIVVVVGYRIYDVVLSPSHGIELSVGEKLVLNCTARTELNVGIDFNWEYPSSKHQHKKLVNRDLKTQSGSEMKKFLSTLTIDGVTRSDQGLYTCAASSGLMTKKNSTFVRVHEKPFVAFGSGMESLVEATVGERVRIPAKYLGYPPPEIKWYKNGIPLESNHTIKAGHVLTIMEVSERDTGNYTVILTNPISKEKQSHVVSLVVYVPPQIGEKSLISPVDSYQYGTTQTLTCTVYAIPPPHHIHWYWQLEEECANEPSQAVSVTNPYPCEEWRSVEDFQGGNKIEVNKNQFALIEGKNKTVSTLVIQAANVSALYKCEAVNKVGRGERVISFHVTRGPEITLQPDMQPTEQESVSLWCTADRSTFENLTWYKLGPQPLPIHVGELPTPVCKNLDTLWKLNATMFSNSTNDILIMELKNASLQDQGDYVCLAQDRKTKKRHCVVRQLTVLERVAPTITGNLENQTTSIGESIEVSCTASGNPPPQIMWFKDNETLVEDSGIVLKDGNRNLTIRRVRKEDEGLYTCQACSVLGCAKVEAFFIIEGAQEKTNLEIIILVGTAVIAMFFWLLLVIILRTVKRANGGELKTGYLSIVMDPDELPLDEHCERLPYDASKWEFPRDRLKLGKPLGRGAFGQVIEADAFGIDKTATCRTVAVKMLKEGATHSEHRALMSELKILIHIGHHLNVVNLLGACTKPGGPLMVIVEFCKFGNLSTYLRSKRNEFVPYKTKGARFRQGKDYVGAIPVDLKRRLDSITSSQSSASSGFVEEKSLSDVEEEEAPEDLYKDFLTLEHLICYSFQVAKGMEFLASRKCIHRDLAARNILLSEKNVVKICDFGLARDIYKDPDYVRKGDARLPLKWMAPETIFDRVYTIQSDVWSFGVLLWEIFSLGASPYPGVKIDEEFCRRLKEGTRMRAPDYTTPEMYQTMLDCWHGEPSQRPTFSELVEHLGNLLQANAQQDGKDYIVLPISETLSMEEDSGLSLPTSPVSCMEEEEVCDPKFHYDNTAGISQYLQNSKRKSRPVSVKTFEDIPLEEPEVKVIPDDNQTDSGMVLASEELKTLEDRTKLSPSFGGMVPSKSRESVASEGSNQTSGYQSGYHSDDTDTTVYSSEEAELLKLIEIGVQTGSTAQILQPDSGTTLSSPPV
Sequence of Insulin receptor (Homo sapiens) (P06213 28-758 limits assumed): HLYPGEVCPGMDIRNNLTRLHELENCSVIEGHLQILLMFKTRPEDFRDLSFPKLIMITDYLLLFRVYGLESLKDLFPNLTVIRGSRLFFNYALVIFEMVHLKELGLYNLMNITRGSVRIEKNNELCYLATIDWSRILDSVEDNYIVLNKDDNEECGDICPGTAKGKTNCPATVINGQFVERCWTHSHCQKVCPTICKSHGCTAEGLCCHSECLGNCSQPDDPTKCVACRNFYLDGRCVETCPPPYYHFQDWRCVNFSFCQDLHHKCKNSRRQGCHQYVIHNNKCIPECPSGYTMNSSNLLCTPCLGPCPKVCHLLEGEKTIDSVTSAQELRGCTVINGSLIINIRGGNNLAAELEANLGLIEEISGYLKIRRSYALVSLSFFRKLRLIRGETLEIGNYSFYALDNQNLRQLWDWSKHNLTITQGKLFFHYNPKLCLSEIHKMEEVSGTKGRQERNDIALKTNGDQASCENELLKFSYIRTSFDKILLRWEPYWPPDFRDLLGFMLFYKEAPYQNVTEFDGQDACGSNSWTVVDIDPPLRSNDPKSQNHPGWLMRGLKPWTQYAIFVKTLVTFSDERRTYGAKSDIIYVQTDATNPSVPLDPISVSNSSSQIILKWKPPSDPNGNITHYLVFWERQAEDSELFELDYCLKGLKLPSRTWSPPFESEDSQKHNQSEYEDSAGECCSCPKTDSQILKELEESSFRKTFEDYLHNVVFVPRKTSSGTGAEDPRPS
Sequence of Insulin receptor (Homo sapiens) (P06213 763-1382 limits assumed): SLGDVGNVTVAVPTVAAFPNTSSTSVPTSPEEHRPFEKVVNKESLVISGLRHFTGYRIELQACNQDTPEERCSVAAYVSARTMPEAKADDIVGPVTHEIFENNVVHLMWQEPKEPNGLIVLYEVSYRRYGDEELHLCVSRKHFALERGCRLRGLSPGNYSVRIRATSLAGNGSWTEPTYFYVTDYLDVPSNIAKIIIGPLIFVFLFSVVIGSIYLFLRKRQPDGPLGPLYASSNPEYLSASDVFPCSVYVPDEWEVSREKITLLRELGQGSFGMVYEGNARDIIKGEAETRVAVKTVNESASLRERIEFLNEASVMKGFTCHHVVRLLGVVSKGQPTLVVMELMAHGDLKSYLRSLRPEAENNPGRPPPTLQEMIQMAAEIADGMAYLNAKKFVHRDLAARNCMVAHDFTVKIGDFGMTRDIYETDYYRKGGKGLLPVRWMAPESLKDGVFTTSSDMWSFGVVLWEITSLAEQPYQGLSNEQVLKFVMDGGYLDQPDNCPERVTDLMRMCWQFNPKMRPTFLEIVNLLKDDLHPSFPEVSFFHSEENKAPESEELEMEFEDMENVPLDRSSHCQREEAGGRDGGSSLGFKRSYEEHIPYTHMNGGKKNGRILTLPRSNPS
Sequence of RAC-alpha serine/threonine-protein kinase (Homo sapiens) (P31749 whole entry): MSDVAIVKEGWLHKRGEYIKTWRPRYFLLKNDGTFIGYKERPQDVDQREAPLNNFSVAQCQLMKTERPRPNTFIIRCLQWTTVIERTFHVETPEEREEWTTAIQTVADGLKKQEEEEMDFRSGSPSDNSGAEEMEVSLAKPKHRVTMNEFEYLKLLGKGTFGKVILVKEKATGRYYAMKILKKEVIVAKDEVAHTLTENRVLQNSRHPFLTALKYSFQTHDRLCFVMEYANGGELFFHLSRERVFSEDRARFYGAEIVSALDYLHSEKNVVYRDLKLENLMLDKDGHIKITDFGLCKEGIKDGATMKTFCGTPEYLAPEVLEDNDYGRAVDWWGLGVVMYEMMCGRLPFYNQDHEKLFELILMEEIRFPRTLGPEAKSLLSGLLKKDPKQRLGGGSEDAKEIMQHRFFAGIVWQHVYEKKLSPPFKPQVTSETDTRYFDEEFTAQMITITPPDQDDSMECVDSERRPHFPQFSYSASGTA
Sequence of Tyrosine-protein kinase CSK (Homo sapiens) (P41240 2-450 limits assumed): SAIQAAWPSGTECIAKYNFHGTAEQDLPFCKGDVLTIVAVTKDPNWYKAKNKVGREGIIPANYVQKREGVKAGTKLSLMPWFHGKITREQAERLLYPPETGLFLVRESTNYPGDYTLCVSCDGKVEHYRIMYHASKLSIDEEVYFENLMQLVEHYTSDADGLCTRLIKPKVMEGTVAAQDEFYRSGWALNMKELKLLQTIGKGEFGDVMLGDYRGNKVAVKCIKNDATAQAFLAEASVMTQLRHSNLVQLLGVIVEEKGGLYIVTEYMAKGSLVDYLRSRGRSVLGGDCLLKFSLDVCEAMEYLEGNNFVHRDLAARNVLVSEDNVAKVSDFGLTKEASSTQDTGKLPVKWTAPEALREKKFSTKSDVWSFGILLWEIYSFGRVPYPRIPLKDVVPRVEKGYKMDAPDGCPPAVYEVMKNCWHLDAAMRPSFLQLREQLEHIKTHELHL
Sequence of Serine/threonine-protein kinase pim-1 (Homo sapiens) (P11309 whole entry, looked up): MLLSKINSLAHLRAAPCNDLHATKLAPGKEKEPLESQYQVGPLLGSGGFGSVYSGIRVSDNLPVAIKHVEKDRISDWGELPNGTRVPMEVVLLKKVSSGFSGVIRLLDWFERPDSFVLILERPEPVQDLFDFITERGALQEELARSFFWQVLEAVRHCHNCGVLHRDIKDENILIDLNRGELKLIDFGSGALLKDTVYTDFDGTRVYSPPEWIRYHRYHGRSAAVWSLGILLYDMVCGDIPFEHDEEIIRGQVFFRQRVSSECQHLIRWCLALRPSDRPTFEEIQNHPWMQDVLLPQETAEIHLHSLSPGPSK

| SMILES | IC50 [1] | inhibition [2] | inhibition [3] | inhibition [4] | inhibition [5] | inhibition [6] | inhibition [7] | inhibition [8] | inhibition [9] | Activity [10] | inhibition [11] | inhibition [12] | inhibition [13] | inhibition [14] | inhibition [15] | inhibition [16] | inhibition [17] | inhibition [18] | Activity [19] | IC50 [20] | also measured |
| --- | --- | --- | --- | --- | --- | --- | --- | --- | --- | --- | --- | --- | --- | --- | --- | --- | --- | --- | --- | --- | --- |
| Cn1c(=O)c(Oc2ccc(F)cc2F)cc2cnc(NCCc3ccccn3)nc21 | 6.75 µM | 95% | 19% | 6% | 10% | 5% | 2% | 3% | 3% | 96.4% | 6% | 3% | 0% | 35% | 17% | 7% | 4% | 3% | 82% | > 30 µM | inhibition [21]: 0%; inhibition [22]: 10%; inhibition [23]: 6%; inhibition [24]: 4%; inhibition [25]: 5%; inhibition [26]: 5%; inhibition [27]: 16% |
| Cn1c(=O)c(Oc2ccc(F)cc2F)cc2cnc(NC3CCN(S(C)(=O)=O)CC3)nc21 | 0.65 µM | 84% | 0% | 23% | 5% | 0% | 2% | 5% | 24% | 87.1% | 0% | 1% | 2% | 49% | 62% | 8% | 32% | 6% | 2.72% | > 30 µM | inhibition [21]: 8%; inhibition [22]: 25%; inhibition [23]: 5%; inhibition [24]: 0%; inhibition [25]: 0%; inhibition [26]: 0%; inhibition [27]: 4% |
| Cn1c(=O)c(Oc2c(Cl)cccc2Cl)cc2cnc(NC3CCOCC3)nc21 | 2.48 µM | 33% | 11% | 3% | 12% | 1% | 2% | 0% | 1% | 68% | 3% | 8% | 0% | 7% | 16% | 0% | 3% | 4% | 8.05% | > 30 µM | inhibition [21]: 0%; inhibition [22]: 4%; inhibition [23]: 4%; inhibition [24]: 3%; inhibition [25]: 3%; inhibition [26]: 4%; inhibition [27]: 8% |
| CN(C)CCNc1ncc2cc(Oc3ccc(F)cc3F)c(=O)n(C)c2n1 | > 23 µM | 51% | 8% | 13% | 8% | 0% | 0% | 1% | 1% | 110% | 5% | 3% | 0% | 9% | 17% | 0% | 7% | 2% | 104% | > 30 µM | inhibition [21]: 0%; inhibition [22]: 0%; inhibition [23]: 5%; inhibition [24]: 7%; inhibition [25]: 4%; inhibition [26]: 5%; inhibition [27]: 6% |
| CN1CCN(c2ccc(Nc3ncc4cc(Oc5ccc(F)cc5F)c(=O)n(C)c4n3)cc2)CC1 | 3.34 µM | 100% | 74% | 0% | 16% | 0% | 5% | -4% | 98% | 76.9% | 0% | 13% | 5% | 53% | 61% | 100% | 54% | 14% | 2.08% | > 30 µM | inhibition [21]: 6%; inhibition [22]: 96%; inhibition [23]: 20%; inhibition [24]: 0%; inhibition [25]: 6%; inhibition [26]: 5%; inhibition [27]: 99% |
| CN1CCN(c2ccc(Nc3ncc4cc(Oc5c(Cl)cccc5Cl)c(=O)n(C)c4n3)cc2)CC1 | > 23 µM | 89% | 42% | 14% | 2% | 4% | 0% | 13% | 24% | 60.9% | 7% | 0% | 3% | 50% | 61% | 91% | 12% | 3% | 13.2% | > 22.6 µM | inhibition [21]: 4%; inhibition [22]: 47%; inhibition [23]: 8%; inhibition [24]: 9%; inhibition [25]: 6%; inhibition [26]: 10%; inhibition [27]: 72% |
| Cn1c(=O)c(Oc2ccc(F)cc2F)cc2cnc(Nc3ccc(N4CCC(O)CC4)cc3)nc21 | 3.79 µM | 100% | 78% | 11% | 24% | 11% | 8% | 22% | 100% | 57.5% | 11% | 26% | 10% | 61% | 30% | 81% | 66% | 12% | 0% | > 30 µM | inhibition [21]: 6%; inhibition [22]: 100%; inhibition [23]: 34%; inhibition [24]: 50%; inhibition [25]: 11%; inhibition [26]: 9%; inhibition [27]: 100% |
| Cn1c(=O)c(Oc2ccc(F)cc2F)cc2cnc(NC3CCN(S(N)(=O)=O)CC3)nc21 | 0.91 µM |  |  |  |  |  |  |  |  | 89.4% |  |  |  |  |  |  |  |  | 0% | > 30 µM |  |
